According to patent publication US9849143B2, “Broad spectrum antiviral and methods of use” (The Burlington HC Research Group, Inc., priority 2006, dated 2017):
Where “and” joins values, the source holds several entries; their conditions need not be identical. Equal entries are not always repeated. Where two headings read alike, the source gives them in different places.

How the values were obtained:
[1] = test system: HIV; type: cell-based; conditions: for duration of action: cell culture, cysteamine re-added every 12 hours, WR-1065 added once in a 72 hour period
[2] = mouse, in vivo, cited from earlier work
[3] = mouse, in vivo; cited from earlier work
[4] = in vivo; cited from earlier work
[5] = rhesus macaques, cited from earlier work
[6] = test system: Ad4-p (strain RI-67); experiment: Infectious virus yield in A549 cell monolayers, Ad4-p; type: cell-based, adenovirus species E
[7] = test system: Ad5-p (strain Adenoid 75); experiment: Infectious virus yield in A549 cell monolayers, Ad5-p; type: cell-based, adenovirus species C
[8] = test system: PHA blasts; experiment: Viability of PHA blasts exposed to WR-1065; type: cell-based, Human; conditions: uninfected PHA blasts
[9] = test system: A/HKx31 (H3N2); type: cell-based, influenza A
[10] = test system: Adenovirus 5p; experiment: Plaque reduction assay in A549 cells; type: cell-based
[11] = test system: Ad7-p (strain Gomen); experiment: Infectious virus yield in A549 cell monolayers, Ad7-p; type: cell-based, adenovirus species B
[12] = Experiment #1, 10 μM AZT, 72 hours
[13] = Experiment #1, 1000 μM WR1065, 72 hours

Cc1cn([C@H]2C[C@H](N=[N+]=[N-])[C@@H](CO)O2)c(=O)[nH]c1=O [AZT, Zidovudine]
Estimated percent viral inhibition [1, 12]: ~100%
HIV P24 [1, 12]: 0.13 pg/mL
Estimated percent viral inhibition ([1]; Experiment #3, 10 μM AZT): ~100%
HIV P24 ([1]; Experiment #3, 10 μM AZT): 2.9 pg/mL

NCCCNCCSP(=O)(O)O [Amifostine, S-2-(3-aminopropyl)aminoethyl phosphorothioic acid]
maximally tolerated dose (MTD) ([2]; ip): 432 mg/kg BW
maximally tolerated dose (MTD) ([2]; po): 720 mg/kg BW
100% effective radioprotective dose [3]: about one half
effects of single doses [4]: no untoward effects

NCCCNCCS [WR-1065, 2-(3-aminopropylamino)ethanethiol]
Concentration (plasma) ([5]; 1 h after duodenal administration of 150 mg/kg BW of parent drug): 6210 ng/mL
Concentration (plasma) ([5]; 2 h after duodenal administration of 150 mg/kg BW of parent drug): 4140 ng/mL
Concentration (plasma) ([5]; 6 h after duodenal administration of 150 mg/kg BW of parent drug): 2070 ng/mL
Estimated percent viral inhibition [1, 13]: ~100%
HIV P24 [1, 13]: 0.13 pg/mL
suppression of HIV replication ([1]; WR-1065 at a concentration of less than 100 μM): > 99.9%
duration of action [1]: long duration of action
in vitro anti-HIV activity relative to cysteamine ([1]; compared by effective concentration): over 2 fold
Mean infectious virus yields 96-h post infection & WR 1065 treatment ([6]; Trial 1, <33 μM WR 1065): 1,420 PFUs × 10^6
Mean infectious virus yields 96-h post infection & WR 1065 treatment ([6]; Trial 1, <100 μM WR 1065): 980 PFUs × 10^6
Mean infectious virus yields 96-h post infection & WR 1065 treatment ([6]; Trial 2, <100 μM WR 1065): 9.5 PFUs × 10^6
Mean infectious virus yields 96-h post infection & WR 1065 treatment ([7]; Trial 1, <10 μM WR 1065): 9.0 PFUs × 10^6
Mean infectious virus yields 96-h post infection & WR 1065 treatment ([7]; Trial 1, <33 μM WR 1065): 5.65 PFUs × 10^6
Mean infectious virus yields 96-h post infection & WR 1065 treatment ([7]; Trial 1, <100 μM WR 1065): 2.25 PFUs × 10^6
Mean infectious virus yields 96-h post infection & WR 1065 treatment ([7]; Trial 2, <33 μM WR 1065): 600 PFUs × 10^6
Mean infectious virus yields 96-h post infection & WR 1065 treatment ([7]; Trial 2, <100 μM WR 1065): 500 PFUs × 10^6
Mean infectious virus yields 96-h post infection & WR 1065 treatment ([7]; Trial 3, <33 μM WR 1065): 1,660 PFUs × 10^6
% Viable Cells (compared to control) ([8]; 1 μM WR-1065, 72 hours): 83%
% Viable Cells (compared to control) ([8]; 5 μM WR-1065, 72 hours): 82%
% Viable Cells (compared to control) ([8]; 10 μM WR-1065, 72 hours): 90%
% Viable Cells (compared to control) ([8]; 50 μM WR-1065, 72 hours): 89%
% Viable Cells (compared to control) ([8]; 100 μM WR-1065, 72 hours): 63%
% Viable Cells (compared to control) ([8]; 500 μM WR-1065, 72 hours): 73%
% Viable Cells (compared to control) ([8]; 1000 μM WR-1065, 72 hours): 30%
Mean plaque number [9]: 59.3 and 57 and 48
plaque number (plaque reduction assay) ([10]; 16.5 μM WR1065): 63
plaque number (plaque reduction assay) ([10]; 50 μM WR1065): 41
reduction of plaque number ([10]; 50 μM WR1065): 36%
Mean infectious virus yields 96-h post infection & WR 1065 treatment ([11]; Trial 1, <10 μM WR 1065): 1.85 PFUs × 10^6
Mean infectious virus yields 96-h post infection & WR 1065 treatment ([11]; Trial 1, <33 μM WR 1065): 0.85 PFUs × 10^6
Mean infectious virus yields 96-h post infection & WR 1065 treatment ([11]; Trial 1, <100 μM WR 1065): 1.15 PFUs × 10^6
Mean infectious virus yields 96-h post infection & WR 1065 treatment ([11]; Trial 2, <100 μM WR 1065): 30.5 PFUs × 10^6

NCCS [cysteamine, Cysteamine]
suppression of HIV replication ([1]; 200 μM cysteamine, in vitro assay system as described above): ~100%
duration of action [1]: very short
